Patent US7138361B2, “Herbicidal heterocycles” (E. I. du Pont de Nemours and Company, priority 2000, dated 2006)

Assays:
Assay type in all cases: in vivo
corn (Zea mays) [1] = assay: Test B postemergence; settings: 13 to 15 days
How it was run: (§1)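 Ratings on a 0 to 100 visual scale (100 complete control) compare treated plants with controls 13 to 15 days after application. Treatments were pre- or postemergence sprays of compound in non-phytotoxic solvent with surfactant.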

[2] = test system: giant foxtail (Setaria faberii); assay: Test B postemergence; settings: 13 to 15 days
How it was run: as §1

[3] = test system: lambsquarters (Chenopodium album); assay: Test B postemergence; settings: 13 to 15 days
How it was run: as §1

[4] = test system: velvetleaf (Abutilon theophrasti); assay: Test B postemergence; settings: 13 to 15 days
How it was run: as §1

[5] = test system: morning glory (Ipomoea hederacea); assay: Test B postemergence; settings: 13 to 15 days
How it was run: as §1

[6] = test system: pigweed (Amaranthus retroflexus); assay: Test B postemergence; settings: 13 to 15 days
How it was run: as §1

[7] = test system: wheat (Triticum aestivum); assay: Test B postemergence; settings: 13 to 15 days
How it was run: as §1

[8] = test system: Surinam grass (Brachiaria decumbens); assay: Test B postemergence; settings: 13 to 15 days
How it was run: as §1

[9] = test system: barnyardgrass (Echinochloa crus-galli); assay: Test B postemergence; settings: 13 to 15 days
How it was run: as §1

wild oat (Avena fatua) = assay: Test B postemergence; settings: 13 to 15 days
How it was run: as §1

[10] = test system: blackgrass (Alopecurus myosuroides); assay: Test B postemergence; settings: 13 to 15 days
How it was run: as §1

[11] = test system: cocklebur (Xanthium strumarium); assay: Test B postemergence; settings: 13 to 15 days
How it was run: as §1

[12] = test system: crabgrass (Digitaria sanguinalis); assay: Test B postemergence; settings: 13 to 15 days
How it was run: as §1

corn (Zea mays) [13] = assay: Test B preemergence
How it was run: as §1

[14] = test system: giant foxtail (Setaria faberii); assay: Test B preemergence
How it was run: as §1

[15] = test system: lambsquarters (Chenopodium album); assay: Test B preemergence
How it was run: as §1

[16] = test system: velvetleaf (Abutilon theophrasti); assay: Test B preemergence
How it was run: as §1

[17] = test system: morning glory (Ipomoea hederacea); assay: Test B preemergence
How it was run: as §1

[18] = test system: pigweed (Amaranthus retroflexus); assay: Test B preemergence
How it was run: as §1

rice (Oryza saliva) = assay: Test B preemergence
How it was run: as §1

[19] = test system: Surinam grass (Brachiaria decumbens); assay: Test B preemergence
How it was run: as §1

[20] = test system: barnyardgrass (Echinochloa crus-galli); assay: Test B preemergence
How it was run: as §1

[21] = test system: cocklebur (Xanthium strumarium); assay: Test B preemergence
How it was run: as §1

[22] = test system: crabgrass (Digitaria sanguinalis); assay: Test B preemergence
How it was run: as §1

Sunflower = assay: Test C preemergence; settings: Rate 500 g/ha, visual evaluation after 12 to 14 days
[23] = test system: smallflower flatsedge (Cyperus difformis); assay: Test C flooded paddy test; settings: for Flatsedge plant response rating: Flooded Paddy, scale 0 to 100, 0 no effect, 100 complete control; for Plant response rating, Flatsedge: flooded paddy test, scale 0 to 100 (0 no effect, 100 complete control)
How it was run: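 Greenhouse-maintained for 12 to 14 days after treatment, the paddy plants (2-leaf stage at application) were scored visually against controls. A score of 0 denotes no effect and a score of 100 denotes complete control.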

Nightshade = assay: Test C preemergence; settings: Rate 500 g/ha, visual evaluation after 12 to 14 days
[24] = Rate 125 g/ha, scale 0 (no effect) to 100 (complete control)
[25] = Rate 500 g/ha, scale 0 to 100, 0 is no effect, 100 is complete control
[26] = Preemergence, Rate 500 g/ha, scale 0 to 100, 0 no effect, 100 complete control
[27] = preemergence, Rate 125 g/ha, scale of 0 to 100 where 0 is no effect and 100 is complete control, 13 to 15 days

`COc1cc(N2CCC(n3ccc(C(C)C)n3)C2=O)ccc1C` (centres unmarked) [Compound 85] was tested. Which “Plant response rating, Corn” value (corn (Zea mays) [1]; [24]) did it give?
Its value is 0.

And the “Plant response rating, Corn” value (corn (Zea mays) [1]; [25])?
Its value is 30.

And the “Plant response rating, Foxtail, Giant” value [2, 24]?
The value was 0.

What about the “Plant response rating, Foxtail, Giant” value [2, 25] of the same molecule?
The value was 20.

And the “Plant response rating, Lambsquarters” value [3, 24]?
Its value is 30.

And the “Plant response rating, Lambsquarters” value [3, 25]?
The value was 90.

What about the “Plant response rating, Velvetleaf” value [4, 24] of the same molecule?
The value was 20.

And the “Plant response rating, Velvetleaf” value [4, 25]?
The value was 50.

What about the “Plant response rating, Morningglory” value [5, 24] of the same molecule?
The value was 0.

What about the “Plant response rating, Morningglory” value [5, 25] of the same molecule?
The value was 80.

And the “Plant response rating, Pigweed” value [6, 24]?
The value was 60.

And the “Plant response rating, Pigweed” value [6, 25]?
Its value is 90.

What about the “Plant response rating, Wheat” value [7, 24] of the same molecule?
Its value is 0.

And the “Plant response rating, Wheat” value [7, 25]?
Its value is 0.

What about the “Plant response rating, Surinam grass” value [8, 24] of the same molecule?
Its value is 0.

And the “Plant response rating, Surinam grass” value [8, 25]?
Its value is 0.

And the “Plant response rating, Barnyardgrass” value [9, 24]?
Its value is 0.

And the “Plant response rating, Barnyardgrass” value [9, 25]?
Its value is 50.

What about the “Plant response rating, Wild Oat” value (wild oat (Avena fatua); [24]) of the same molecule?
Its value is 0.

What about the “Plant response rating, Wild Oat” value (wild oat (Avena fatua); [25]) of the same molecule?
The value was 20.

What about the “Plant response rating, Blackgrass” value [10, 24] of the same molecule?
Its value is 0.

What about the “Plant response rating, Blackgrass” value [10, 25] of the same molecule?
Its value is 20.

And the “Plant response rating, Cocklebur” value [11, 24]?
The value was 40.

And the “Plant response rating, Cocklebur” value [11, 25]?
The value was 100.

And the “Plant response rating, Crabgrass” value [12, 24]?
Its value is 20.

What about the “Plant response rating, Crabgrass” value [12, 25] of the same molecule?
Its value is 50.

And the “Plant response rating, Corn” value (corn (Zea mays) [13]; [26])?
Its value is 30.

What about the “Plant response rating, Corn” value (corn (Zea mays) [13]; [27]) of the same molecule?
Its value is 20.

And the “Plant response rating, Foxtail, Giant” value [14, 26]?
The value was 100.

What about the “Plant response rating, Foxtail, Giant” value [14, 27] of the same molecule?
Its value is 80.

And the “Plant response rating, Lambsquarters” value [15, 26]?
The value was 100.

And the “Plant response rating, Lambsquarters” value [15, 27]?
The value was 100.

What about the “Plant response rating, Velvetleaf” value [16, 26] of the same molecule?
Its value is 100.

And the “Plant response rating, Velvetleaf” value [16, 27]?
Its value is 20.

And the “Plant response rating, Morningglory” value [17, 26]?
Its value is 100.

And the “Plant response rating, Morningglory” value [17, 27]?
The value was 90.

What about the “Plant response rating, Pigweed” value [18, 26] of the same molecule?
The value was 100.

And the “Plant response rating, Pigweed” value [18, 27]?
Its value is 100.

What about the “Plant response rating, Rice” value (rice (Oryza saliva); [26]) of the same molecule?
The value was 100.

And the “Plant response rating, Rice” value (rice (Oryza saliva); [27])?
The value was 100.

And the “Plant response rating, Surinam grass” value [19, 26]?
The value was 90.

And the “Plant response rating, Surinam grass” value [19, 27]?
Its value is 60.

What about the “Plant response rating, Barnyardgrass” value [20, 26] of the same molecule?
The value was 100.

And the “Plant response rating, Barnyardgrass” value [20, 27]?
Its value is 100.

And the “Plant response rating, Cocklebur” value [21, 26]?
The value was 90.

What about the “Plant response rating, Cocklebur” value [21, 27] of the same molecule?
Its value is 40.

And the “Plant response rating, Crabgrass” value [22, 26]?
Its value is 100.

What about the “Plant response rating, Crabgrass” value [22, 27] of the same molecule?
Its value is 100.

What about the “Plant response rating (0 to 100), Sunflower” value (Sunflower) of the same molecule?
The value was 70.

And the “Flatsedge plant response rating” value ([23]; Rate 250 g/ha)?
The value was 100.

And the “Flatsedge plant response rating” value ([23]; Rate 500 g/ha)?
Its value is 100.

What about the “Plant response rating, Flatsedge” value ([23]; Rate 62 g/ha) of the same molecule?
The value was 90.

And the “Plant response rating, Flatsedge” value ([23]; Rate 125 g/ha)?
Its value is 100.

What about the “Plant response rating (0 to 100), Nightshade” value (Nightshade) of the same molecule?
Its value is 100.

How did the “Plant response rating, Corn” value (corn (Zea mays) [1]; [24]) turn out when `CSc1cccc(N2CCC(n3ccc(C(C)(C)C)n3)C2=O)c1` (centres unmarked) [Compound 86] was run?
The value was 0.

And the “Plant response rating, Corn” value (corn (Zea mays) [1]; [25])?
Its value is 0.

What about the “Plant response rating, Foxtail, Giant” value [2, 24] of the same molecule?
The value was 0.

And the “Plant response rating, Foxtail, Giant” value [2, 25]?
Its value is 0.

And the “Plant response rating, Lambsquarters” value [3, 24]?
Its value is 0.

What about the “Plant response rating, Lambsquarters” value [3, 25] of the same molecule?
Its value is 50.

And the “Plant response rating, Velvetleaf” value [4, 24]?
Its value is 0.

What about the “Plant response rating, Velvetleaf” value [4, 25] of the same molecule?
The value was 0.

And the “Plant response rating, Morningglory” value [5, 24]?
Its value is 0.

And the “Plant response rating, Morningglory” value [5, 25]?
Its value is 0.

And the “Plant response rating, Pigweed” value [6, 24]?
Its value is 0.

And the “Plant response rating, Pigweed” value [6, 25]?
The value was 0.

And the “Plant response rating, Wheat” value [7, 24]?
The value was 0.

And the “Plant response rating, Wheat” value [7, 25]?
The value was 0.

What about the “Plant response rating, Surinam grass” value [8, 24] of the same molecule?
Its value is 0.

And the “Plant response rating, Surinam grass” value [8, 25]?
The value was 0.

What about the “Plant response rating, Barnyardgrass” value [9, 24] of the same molecule?
The value was 0.

And the “Plant response rating, Barnyardgrass” value [9, 25]?
Its value is 0.

And the “Plant response rating, Wild Oat” value (wild oat (Avena fatua); [24])?
Its value is 0.

What about the “Plant response rating, Wild Oat” value (wild oat (Avena fatua); [25]) of the same molecule?
The value was 0.

And the “Plant response rating, Blackgrass” value [10, 24]?
Its value is 0.

What about the “Plant response rating, Blackgrass” value [10, 25] of the same molecule?
Its value is 0.

What about the “Plant response rating, Cocklebur” value [11, 24] of the same molecule?
Its value is 0.

And the “Plant response rating, Cocklebur” value [11, 25]?
The value was 0.

And the “Plant response rating, Crabgrass” value [12, 24]?
The value was 0.

What about the “Plant response rating, Crabgrass” value [12, 25] of the same molecule?
The value was 0.

And the “Plant response rating, Corn” value (corn (Zea mays) [13]; [26])?
The value was 20.

What about the “Plant response rating, Corn” value (corn (Zea mays) [13]; [27]) of the same molecule?
The value was 0.

What about the “Plant response rating, Foxtail, Giant” value [14, 26] of the same molecule?
The value was 100.

And the “Plant response rating, Foxtail, Giant” value [14, 27]?
Its value is 80.

What about the “Plant response rating, Lambsquarters” value [15, 26] of the same molecule?
The value was 100.

And the “Plant response rating, Lambsquarters” value [15, 27]?
The value was 100.

And the “Plant response rating, Velvetleaf” value [16, 26]?
Its value is 0.

And the “Plant response rating, Velvetleaf” value [16, 27]?
The value was 0.

What about the “Plant response rating, Morningglory” value [17, 26] of the same molecule?
Its value is 0.

And the “Plant response rating, Morningglory” value [17, 27]?
The value was 0.

And the “Plant response rating, Pigweed” value [18, 26]?
The value was 100.

And the “Plant response rating, Pigweed” value [18, 27]?
Its value is 100.

And the “Plant response rating, Rice” value (rice (Oryza saliva); [26])?
The value was 0.

And the “Plant response rating, Rice” value (rice (Oryza saliva); [27])?
The value was 0.

And the “Plant response rating, Surinam grass” value [19, 26]?
The value was 60.

And the “Plant response rating, Surinam grass” value [19, 27]?
The value was 0.

What about the “Plant response rating, Barnyardgrass” value [20, 26] of the same molecule?
The value was 100.

What about the “Plant response rating, Barnyardgrass” value [20, 27] of the same molecule?
Its value is 0.

And the “Plant response rating, Cocklebur” value [21, 26]?
Its value is 0.

And the “Plant response rating, Cocklebur” value [21, 27]?
Its value is 0.

And the “Plant response rating, Crabgrass” value [22, 26]?
The value was 100.

And the “Plant response rating, Crabgrass” value [22, 27]?
The value was 0.

And the “Plant response rating (0 to 100), Sunflower” value (Sunflower)?
The value was 20.

And the “Flatsedge plant response rating” value ([23]; Rate 250 g/ha)?
Its value is 70.

What about the “Plant response rating, Flatsedge” value ([23]; Rate 62 g/ha) of the same molecule?
Its value is 0.

And the “Plant response rating, Flatsedge” value ([23]; Rate 125 g/ha)?
The value was 0.

What about the “Plant response rating (0 to 100), Nightshade” value (Nightshade) of the same molecule?
Its value is 10.
